The record followed here is patent US7919624B2, “VR1 vanilloid receptor antagonists with a iononic substructure” (Pharmeste S.R.L., priority 2006, dated 2011).

The target in assay [1] is T1, TRPV1 expressed in rat spinal cord (Rattus norvegicus, UniProt O35433).
T1 construct: the spinal cord was removed and disrupted using a Polytron tissue homogenizer; from tissue; host or cells: spinal cord membranes of male Sprague-Dawley rats
The assay is described as follows: Radioligand binding assay, [3H]-RTX, rat spinal cord membranes. Conditions: 37° C. 60 min, range in brackets; for Ki: [3H]RTX 0.4 nM, read-out: Ki value, competition binding of [3H]-RTX. How it is done: Radioligand Binding Assay
Male Sprague-Dawley rats with body weight between 250 and 350 g at the time for testing were used. For binding assays rats were sacrificed by decapitation under anesthesia and the spinal cord was removed and disrupted using a Polytron tissue homogenizer in ice cold buffer containing 5 mM KCl, 5.8 mM NaCl, 0.75 mM CaCl2, 2 mM MgCl2, 320 mM sucrose, 10 mM Hepes, pH 8.6.^5 The homogenized tissue was centrifuged at 1000×g for 10 min at 4° C. and the supernatant was centrifuged again at 35000×g for 30 min at 4° C. (Beckman Avanti J25). The pellet was resuspended in the same buffer described above and used in binding experiments. In saturation experiments, 150 μg protein/sample from membrane suspensions were incubated with [^3H]-resiniferatoxin ([^3H]-RTX) (0.003-3 nM) in the assay buffer containing 0.25 mg/ml fatty acid-free bovine serum albumin at 37° C. for 60 min. In competition experiments, the membranes were incubated at 37° C. for 60 min with [^3H]RTX (0.4 nM) and increasing concentrations of the examined compounds in the range from 0.1 nM to 3 μM. Non-specific binding was defined in the presence of 1 μM RTX. After incubation, the reaction mixture was cooled at 0° C. and incubated with bovine α1-acid glycoprotein (200 μg per tube) for 15 min to reduce non-specific RTX binding. Membrane-bound RTX was separated from free RTX through centrifugation of the samples at 18500×g for 15 min. The tip of the microcentrifuge tube containing the pellet was cut off and radioactivity was determined by scintillation counting (Packard 2500 TR). Protein concentration was determined according to a Bio-Rad method with bovine serum albumin as reference standard (Bradford, 1976). Saturation and competition studies were analysed with the program Ligand.^6

The target of assay [2] is T2, TRPV1 expressing neurons (rat trigeminal neurons) (Rattus norvegicus, UniProt O35433).
T2 construct: Two-days old Newborn rats were terminally anaesthetized and decapitated; Trigeminal ganglia were removed; endogenous in cells; host or cells: primary cultured trigeminal ganglion neurons from newborn Sprague-Dawley rats
The assay is described as follows: Ca2+ fluorescence measurements in cultured rat trigeminal ganglia. Format: cell-based. Conditions: 0.1 μM capsaicin, mean and 95% fiducial limits, read-out: IC50 inhibiting capsaicin-evoked [Ca2+]i mobilization. How it is done:
Ca^2+ Fluorescence Measurements in Cultured rat Trigeminal Ganglia
Two-days old Newborn rats were terminally anaesthetized and decapitated. Trigeminal ganglia were removed and rapidly placed in a cold phosphate buffered solution (PBS) before being transferred to collagenase/dispase (1 mg/ml dissolved in Ca^2+- Mg^2+-free PBS) for 35 min at 37° C.^7 After the enzymatic treatment the ganglia were rinsed three times with Ca^2+- Mg^2+-free PBS and then placed in 2 ml of cold DMEM supplemented with 10% fetal bovine serum (FBS, heat inactivated), 2 mM L-glutamine, 100 μ/ml penicillin and 100 μg/ml streptomycin. The ganglia were dissociated into single cells by several passages through a series of syringe needles (23G down to 25G). Finally, the medium and the ganglia cells were sieved through a 40 μm filter to remove debris and topped up with 8 ml of DMEM medium and centrifuged (200×g for 5 min). The final cell pellet was re-suspended in DMEM medium [supplemented with 100 ng/ml mouse Nerve Growth Factor (mouse-NGF-7S) and cytosine-β-D-arabinofuranoside free base (ARA-C) 2.5 μM]. Cells were plated on poly-L-lysine-(8.3 μM) and laminin-(5 μM) coated 25 mm glass cover slips and kept for 5 to 8 days at 37° C. in a humidified incubator gassed with 5% CO2 and air. Plated neurons were loaded with Fura-2-AM-ester (3 μM) in Ca^2+ buffer solution of the following composition (mM): CaCl2 1.4, KCl 5.4, MgSO4 0.4, NaCl 135, D-glucose 5, HEPES 10 with BSA (0.1%), at pH 7.4, for 40 min at 37° C. The plated neurons were then washed twice with the Ca^2+ buffer solution and transferred to a chamber on the stage of Nikon eclipse TE300 microscope. Fura-2-AM-ester was excited at […] to indicate relative [Ca^2+]i changes by the F340/F380 ratio recorded with a dynamic image analysis system (Laboratory Automation 2.0, RCS, Florence, Italy). After transferring the plated neurons to the chamber, they were allowed (at least 10 min) to attain a stable fluorescence before beginning the experiment. A calibration curve was performed using buffer containing Fura-2-AM-ester and determinant concentrations of free Ca^2+.
The results are expressed as mean and 95% fiducial limits.

The test system of assay [3] is capsaicin-induced tactile allodynia. The experiment in a line: Capsaicin-induced secondary allodynia in rat. The settings on record: 10 mg/kg orally 2 hours prior to capsaicin (20 nmols/50 μl/paw), 90 min after capsaicin challenge. Format: in vivo. The method, then: Capsaicin-induced Secondary Allodynia in Rat
Capsaicin (20 nmols/50 μl/paw) was injected in the plantar surface of the glabrous skin of the right paw of rats anesthetized with diethyl ether (Chaplan et al., 1994). Compound Id was orally administered (10 mg/kg) 2 hours prior to capsaicin injection. Tactile allodynia was evaluated 90 min after capsaicin challenge.

T1 sequence (O35433 whole entry): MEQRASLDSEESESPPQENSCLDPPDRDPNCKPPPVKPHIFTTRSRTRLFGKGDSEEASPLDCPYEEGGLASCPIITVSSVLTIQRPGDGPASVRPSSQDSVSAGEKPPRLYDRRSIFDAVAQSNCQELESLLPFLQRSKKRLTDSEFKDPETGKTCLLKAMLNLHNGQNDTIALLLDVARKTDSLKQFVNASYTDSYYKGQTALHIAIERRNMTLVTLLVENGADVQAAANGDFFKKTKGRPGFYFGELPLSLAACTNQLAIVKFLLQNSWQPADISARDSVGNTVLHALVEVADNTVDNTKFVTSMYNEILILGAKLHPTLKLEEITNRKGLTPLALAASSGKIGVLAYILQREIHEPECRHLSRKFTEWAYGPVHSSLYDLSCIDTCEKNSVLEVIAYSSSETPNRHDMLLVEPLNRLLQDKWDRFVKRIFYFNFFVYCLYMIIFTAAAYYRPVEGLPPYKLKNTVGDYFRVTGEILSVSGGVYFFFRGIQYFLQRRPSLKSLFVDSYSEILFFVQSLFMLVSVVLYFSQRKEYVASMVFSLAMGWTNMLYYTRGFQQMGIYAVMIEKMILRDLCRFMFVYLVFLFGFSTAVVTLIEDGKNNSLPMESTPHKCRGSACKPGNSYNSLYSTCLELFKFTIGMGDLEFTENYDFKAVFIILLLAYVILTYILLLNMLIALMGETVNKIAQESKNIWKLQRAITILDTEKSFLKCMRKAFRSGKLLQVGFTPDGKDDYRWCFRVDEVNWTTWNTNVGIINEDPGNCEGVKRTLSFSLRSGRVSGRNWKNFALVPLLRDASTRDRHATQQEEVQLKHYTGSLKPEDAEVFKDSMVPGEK
T2 sequence (O35433 whole entry): as above

In the case of `CC1=C(/C=C/C(=O)Nc2cccc3cnccc23)C(C)(C)CCC1` [Ia, (2E)-N-(isoquinolin-5-yl)-3-(2,6,6-trimethylcyclohex-1-enyl)acrylamide], in assay [1], the Ki came out at 66 nM. Moreover, in assay [2], the IC50 turned out to be 44 nM.

On to `CC1=C(/C=C/C(=O)Nc2cccc3cnccc23)C(C)(C)CCC1Oc1ccccc1` (stereo not shown) [Ic, (2E)-N-(isoquinolin-5-yl)-3-(2,6,6-trimethyl-3-phenoxycyclohex-1-enyl)acrylamide], for which the Ki in assay [1] amounted to 4.93 nM. Also, the IC50 in assay [2] was found to be 2.12 nM.

As for `CC1=C(/C=C/C(=O)Nc2cccc3cnccc23)C(C)(C)CCC1Oc1ccc(F)c(F)c1` (stereo not shown) [Ig, (2E)-3-(3-(3,4-difluorophenoxy)-2,6,6-trimethylcyclohex-1-enyl)-N-(isoquinolin-5-yl)acrylamide], the Ki in assay [1] is 10.3 nM. Further, the IC50 in assay [2] is 0.65 nM.

With `C=C(C)[C@]12C[C@@H](C)[C@@]34O[C@](Cc5ccccc5)(O[C@@H]1[C@@H]3C=C(COC(=O)Cc1ccc(O)c(OC)c1)C[C@]1(O)C(=O)C(C)=C[C@@H]41)O2` [[^3H]-RTX, [^3H]-resiniferatoxin, reference compound], the Kd in assay [1] ([3H]-RTX 0.003-3 nM, read-out: KD value, saturation curve of [3H]-RTX) worked out at 0.21 nM.

As for `CC1=C(/C=C/C(=O)Nc2cccc3cnccc23)C(C)(C)CCC1Oc1ccc(F)cc1` (stereo not shown) [Ie, (2E)-3-(3-(4-fluorophenoxy)-2,6,6-trimethylcyclohex-1-enyl)-N-(isoquinolin-5-yl)acrylamide], the inhibition constant (Ki) in assay [1] turned out to be 14.8 nM. Besides, the IC50 in assay [2] came out at 5.25 nM.

As to `CC1=C(/C=C/C(=O)Nc2cccc3cnccc23)C(C)(C)CCC1Oc1ccc(Cl)cc1` (stereo not shown) [Compound Id, (2E)-3-(3-(4-chlorophenoxy)-2,6,6-trimethylcyclohex-1-enyl)-N-(isoquinolin-5-yl)acrylamide], the “preventive effect against the pro-allodinic effect of capsaicin” value in assay [3] was found to be 54%. The Ki in assay [1] was determined as 27 nM. In assay [2], the IC50 is 18.2 nM.

Turning to `COC1CCC(C)(C)C(/C=C/C(=O)Nc2cccc3cnccc23)=C1C` (stereo not shown) [Ib, (2E)-N-(isoquinolin-5-yl)-3-(3-methoxy-2,6,6-trimethylcyclohex-1-enyl)acrylamide], in assay [1], the Ki stood at 26.2 nM. The IC50 in assay [2] worked out at 28.4 nM.

As to `CC1=C(/C=C/C(=O)Nc2cccc3cnccc23)C(C)(C)CCC1Oc1cccc(F)c1` (stereo not shown) [If, (2E)-3-(3-(3-fluorophenoxy)-2,6,6-trimethylcyclohex-1-enyl)-N-(isoquinolin-5-yl)acrylamide], the Ki in assay [1] was determined as 8.14 nM. The IC50 in assay [2] amounted to 0.38 nM.
